Consider eight molecules from ChEMBL document CHEMBL2417377, “Hit-to-lead optimization and kinase selectivity of imidazo[1,2-a]quinoxalin-4-amine derived JNK1 inhibitors” (Bioorg Med Chem Lett, 2013).

Experiment [1] concerns the target Phosphatidylinositol 4-kinase beta (Homo sapiens) (UniProt Q9UBF8). Briefly: Inhibition of PI4KB in human PC3 cell lysates at 30 uM using desthiobiotin-tagged ATP probe AX9989 followed by trypsinization by LC/MS analysis. The note with it: PC-3.
Experiment [2] deals with Cyclin-dependent kinase 9 (Homo sapiens) (UniProt P50750). The experiment is described as follows: Inhibition of CDK9 in human PC3 cell lysates at 30 uM using desthiobiotin-tagged ATP probe AX9989 followed by trypsinization by LC/MS analysis. The note with it: PC-3.
Experiment [3] concerns the target T1, Eukaryotic translation initiation factor 2-alpha kinase 3 (Homo sapiens) (UniProt Q9NZJ5).
T1 sequence (whole entry): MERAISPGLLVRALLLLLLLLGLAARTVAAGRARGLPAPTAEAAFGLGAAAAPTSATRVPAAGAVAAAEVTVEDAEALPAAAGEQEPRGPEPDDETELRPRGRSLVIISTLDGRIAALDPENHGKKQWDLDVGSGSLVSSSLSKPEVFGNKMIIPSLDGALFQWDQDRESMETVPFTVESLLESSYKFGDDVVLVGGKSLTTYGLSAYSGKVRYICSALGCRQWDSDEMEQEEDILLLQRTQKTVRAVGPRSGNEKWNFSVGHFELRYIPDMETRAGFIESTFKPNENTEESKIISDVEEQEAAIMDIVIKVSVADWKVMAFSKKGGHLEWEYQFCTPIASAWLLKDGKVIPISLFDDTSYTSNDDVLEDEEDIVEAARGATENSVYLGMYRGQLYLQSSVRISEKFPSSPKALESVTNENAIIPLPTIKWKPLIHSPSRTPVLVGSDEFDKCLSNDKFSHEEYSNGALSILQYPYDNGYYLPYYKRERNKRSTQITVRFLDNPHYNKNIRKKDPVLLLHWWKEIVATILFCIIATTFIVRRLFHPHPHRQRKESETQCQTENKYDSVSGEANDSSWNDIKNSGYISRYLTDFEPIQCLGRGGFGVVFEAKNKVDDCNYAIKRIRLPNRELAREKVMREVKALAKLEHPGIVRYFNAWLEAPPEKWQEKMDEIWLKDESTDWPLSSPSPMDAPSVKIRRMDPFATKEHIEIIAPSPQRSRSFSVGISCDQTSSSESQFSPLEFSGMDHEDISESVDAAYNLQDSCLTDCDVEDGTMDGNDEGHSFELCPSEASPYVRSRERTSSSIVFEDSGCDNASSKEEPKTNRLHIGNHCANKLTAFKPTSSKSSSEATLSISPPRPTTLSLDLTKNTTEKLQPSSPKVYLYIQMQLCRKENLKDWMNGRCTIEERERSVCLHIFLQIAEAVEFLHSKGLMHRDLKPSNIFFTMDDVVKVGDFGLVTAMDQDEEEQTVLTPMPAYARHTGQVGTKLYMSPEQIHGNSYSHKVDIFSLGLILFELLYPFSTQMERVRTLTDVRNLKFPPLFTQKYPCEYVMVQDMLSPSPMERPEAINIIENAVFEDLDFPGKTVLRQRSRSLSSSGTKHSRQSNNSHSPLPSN
Briefly: Inhibition of PEK in human PC3 cell lysates at 30 uM using desthiobiotin-tagged ATP probe AX9989 followed by trypsinization by LC/MS analysis. The note with it: PC-3.

For experiment [4], the target named is MAST1/MAST2 (Homo sapiens) (UniProt Q9Y2H9+Q6P0Q8). Briefly: Inhibition of MAST1/2 in human HuH7 cell lysates at 10 uM. It counts as protein assay. The following applies: Huh-7.
MAST1/MAST2 (Homo sapiens), sequence (Q6P0Q8 whole entry, looked up): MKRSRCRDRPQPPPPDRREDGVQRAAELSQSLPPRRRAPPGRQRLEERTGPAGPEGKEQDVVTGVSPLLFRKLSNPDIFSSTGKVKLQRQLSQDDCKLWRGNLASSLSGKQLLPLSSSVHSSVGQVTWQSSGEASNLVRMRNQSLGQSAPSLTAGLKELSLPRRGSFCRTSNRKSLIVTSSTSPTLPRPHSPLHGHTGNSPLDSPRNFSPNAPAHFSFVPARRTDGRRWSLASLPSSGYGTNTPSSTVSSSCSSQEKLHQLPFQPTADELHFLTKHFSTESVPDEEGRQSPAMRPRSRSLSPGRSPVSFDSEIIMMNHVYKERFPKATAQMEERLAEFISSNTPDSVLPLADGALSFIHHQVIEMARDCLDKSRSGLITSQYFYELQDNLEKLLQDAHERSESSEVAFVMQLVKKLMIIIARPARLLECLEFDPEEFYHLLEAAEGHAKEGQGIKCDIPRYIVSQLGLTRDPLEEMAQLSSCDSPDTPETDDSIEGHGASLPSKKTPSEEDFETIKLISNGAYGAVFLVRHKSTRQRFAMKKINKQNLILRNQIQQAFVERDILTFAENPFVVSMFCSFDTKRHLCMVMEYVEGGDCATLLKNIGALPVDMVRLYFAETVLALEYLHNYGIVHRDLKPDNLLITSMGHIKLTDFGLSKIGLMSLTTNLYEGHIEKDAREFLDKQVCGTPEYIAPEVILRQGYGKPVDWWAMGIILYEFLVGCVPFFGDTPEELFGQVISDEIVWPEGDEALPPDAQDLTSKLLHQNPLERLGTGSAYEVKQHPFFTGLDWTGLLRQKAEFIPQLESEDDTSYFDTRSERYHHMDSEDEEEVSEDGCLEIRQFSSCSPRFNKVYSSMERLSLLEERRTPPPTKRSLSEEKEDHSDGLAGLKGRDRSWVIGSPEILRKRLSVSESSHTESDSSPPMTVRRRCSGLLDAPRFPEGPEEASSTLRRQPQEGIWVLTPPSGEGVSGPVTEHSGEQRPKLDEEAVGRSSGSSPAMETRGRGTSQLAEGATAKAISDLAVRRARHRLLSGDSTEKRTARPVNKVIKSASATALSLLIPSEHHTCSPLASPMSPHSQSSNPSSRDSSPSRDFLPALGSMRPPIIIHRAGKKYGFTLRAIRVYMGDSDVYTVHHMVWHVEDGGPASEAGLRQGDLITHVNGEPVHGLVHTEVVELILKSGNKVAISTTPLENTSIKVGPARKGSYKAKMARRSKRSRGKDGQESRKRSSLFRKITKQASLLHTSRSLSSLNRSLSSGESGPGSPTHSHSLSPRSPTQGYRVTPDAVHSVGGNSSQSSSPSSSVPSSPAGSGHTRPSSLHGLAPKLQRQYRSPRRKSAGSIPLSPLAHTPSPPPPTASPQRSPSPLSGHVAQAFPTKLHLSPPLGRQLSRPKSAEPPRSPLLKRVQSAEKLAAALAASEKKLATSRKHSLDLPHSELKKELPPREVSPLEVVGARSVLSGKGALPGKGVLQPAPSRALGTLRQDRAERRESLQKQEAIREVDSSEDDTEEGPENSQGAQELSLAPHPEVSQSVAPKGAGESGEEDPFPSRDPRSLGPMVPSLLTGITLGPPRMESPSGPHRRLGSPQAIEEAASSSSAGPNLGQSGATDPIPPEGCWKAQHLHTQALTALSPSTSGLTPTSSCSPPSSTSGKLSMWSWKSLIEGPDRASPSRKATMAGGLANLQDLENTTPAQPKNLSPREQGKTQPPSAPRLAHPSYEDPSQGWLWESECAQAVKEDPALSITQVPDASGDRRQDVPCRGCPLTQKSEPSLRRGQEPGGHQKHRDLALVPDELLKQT
MAST1/MAST2 (Homo sapiens), sequence (Q9Y2H9 whole entry, looked up): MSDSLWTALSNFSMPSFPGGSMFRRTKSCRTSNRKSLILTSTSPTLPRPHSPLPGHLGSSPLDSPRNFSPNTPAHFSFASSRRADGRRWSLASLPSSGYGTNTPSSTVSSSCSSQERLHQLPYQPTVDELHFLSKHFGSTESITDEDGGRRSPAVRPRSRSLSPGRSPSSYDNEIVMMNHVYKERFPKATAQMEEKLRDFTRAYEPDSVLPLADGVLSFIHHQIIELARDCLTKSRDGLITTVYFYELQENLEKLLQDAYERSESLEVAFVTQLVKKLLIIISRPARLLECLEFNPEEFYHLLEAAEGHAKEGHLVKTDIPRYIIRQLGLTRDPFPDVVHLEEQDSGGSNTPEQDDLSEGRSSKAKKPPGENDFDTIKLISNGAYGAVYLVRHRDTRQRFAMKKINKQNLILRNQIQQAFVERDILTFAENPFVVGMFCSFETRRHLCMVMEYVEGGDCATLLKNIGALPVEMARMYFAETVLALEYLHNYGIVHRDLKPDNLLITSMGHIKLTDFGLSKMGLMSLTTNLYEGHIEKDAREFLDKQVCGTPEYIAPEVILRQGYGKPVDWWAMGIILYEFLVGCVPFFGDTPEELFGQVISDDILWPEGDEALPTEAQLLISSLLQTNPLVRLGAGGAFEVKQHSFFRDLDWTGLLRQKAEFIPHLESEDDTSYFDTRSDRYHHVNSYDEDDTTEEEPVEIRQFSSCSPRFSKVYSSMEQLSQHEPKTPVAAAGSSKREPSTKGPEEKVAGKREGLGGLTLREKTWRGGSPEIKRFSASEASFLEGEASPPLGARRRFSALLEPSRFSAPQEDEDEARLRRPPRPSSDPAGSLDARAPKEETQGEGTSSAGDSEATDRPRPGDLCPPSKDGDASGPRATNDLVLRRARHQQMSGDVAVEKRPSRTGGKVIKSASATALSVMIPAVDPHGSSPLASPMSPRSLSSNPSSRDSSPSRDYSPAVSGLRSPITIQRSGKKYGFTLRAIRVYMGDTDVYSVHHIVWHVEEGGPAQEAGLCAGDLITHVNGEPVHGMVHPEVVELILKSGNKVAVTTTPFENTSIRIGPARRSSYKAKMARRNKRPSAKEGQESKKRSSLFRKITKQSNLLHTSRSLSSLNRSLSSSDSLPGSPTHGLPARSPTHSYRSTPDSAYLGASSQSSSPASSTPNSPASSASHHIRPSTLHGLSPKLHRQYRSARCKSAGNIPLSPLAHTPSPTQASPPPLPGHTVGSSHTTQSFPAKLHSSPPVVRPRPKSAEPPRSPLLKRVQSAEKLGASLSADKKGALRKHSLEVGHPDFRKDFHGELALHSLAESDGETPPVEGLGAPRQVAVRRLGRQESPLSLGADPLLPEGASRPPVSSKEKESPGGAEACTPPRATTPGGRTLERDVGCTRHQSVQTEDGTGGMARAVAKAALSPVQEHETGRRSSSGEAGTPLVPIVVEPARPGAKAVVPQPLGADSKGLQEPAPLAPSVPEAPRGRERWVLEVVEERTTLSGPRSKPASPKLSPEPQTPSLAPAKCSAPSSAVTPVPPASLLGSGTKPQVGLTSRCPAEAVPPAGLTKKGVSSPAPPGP

Cyclin-dependent kinase 9 (Homo sapiens), sequence (P50750 whole entry): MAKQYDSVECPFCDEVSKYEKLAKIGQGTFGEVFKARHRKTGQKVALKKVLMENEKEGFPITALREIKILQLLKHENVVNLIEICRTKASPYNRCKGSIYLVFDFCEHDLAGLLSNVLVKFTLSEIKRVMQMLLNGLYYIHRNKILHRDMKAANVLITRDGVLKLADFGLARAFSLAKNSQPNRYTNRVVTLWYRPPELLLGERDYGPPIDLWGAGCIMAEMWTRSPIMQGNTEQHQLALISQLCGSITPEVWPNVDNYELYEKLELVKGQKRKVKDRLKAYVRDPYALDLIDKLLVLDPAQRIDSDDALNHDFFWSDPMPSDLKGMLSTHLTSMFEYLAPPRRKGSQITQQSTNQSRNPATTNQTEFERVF
Phosphatidylinositol 4-kinase beta (Homo sapiens), sequence (Q9UBF8 2-816 limits assumed): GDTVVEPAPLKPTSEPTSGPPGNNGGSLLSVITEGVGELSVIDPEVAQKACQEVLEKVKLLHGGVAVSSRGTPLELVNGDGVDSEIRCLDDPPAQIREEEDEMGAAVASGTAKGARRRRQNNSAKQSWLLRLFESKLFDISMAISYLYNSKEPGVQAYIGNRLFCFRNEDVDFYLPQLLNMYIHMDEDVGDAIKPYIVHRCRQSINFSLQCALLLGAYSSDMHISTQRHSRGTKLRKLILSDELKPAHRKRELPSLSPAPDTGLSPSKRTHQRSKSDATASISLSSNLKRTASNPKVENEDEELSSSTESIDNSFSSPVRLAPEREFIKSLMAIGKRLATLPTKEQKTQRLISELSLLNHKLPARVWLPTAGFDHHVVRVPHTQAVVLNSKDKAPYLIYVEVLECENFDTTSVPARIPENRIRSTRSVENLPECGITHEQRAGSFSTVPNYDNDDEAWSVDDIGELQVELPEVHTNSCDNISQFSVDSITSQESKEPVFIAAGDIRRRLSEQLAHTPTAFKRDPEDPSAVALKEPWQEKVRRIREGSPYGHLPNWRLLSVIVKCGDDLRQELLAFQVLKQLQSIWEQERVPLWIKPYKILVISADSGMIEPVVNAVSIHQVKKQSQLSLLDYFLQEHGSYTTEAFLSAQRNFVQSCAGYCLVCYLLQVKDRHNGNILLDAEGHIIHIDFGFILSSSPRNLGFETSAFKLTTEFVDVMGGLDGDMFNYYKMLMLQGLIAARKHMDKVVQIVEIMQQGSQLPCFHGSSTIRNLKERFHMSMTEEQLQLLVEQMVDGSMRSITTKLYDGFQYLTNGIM

As usually defined, the inhibition is the drop in the measured response relative to a control, in per cent. A higher inhibition goes with a response far below the control. With `c1ccc(CNc2nc3ccccc3n3ccnc23)cc1`, the values for the inhibition in experiment [1], in experiment [2] and in experiment [3] were 66.5%, below 35% and below 35%, respectively.

Consider `O=C(NC1(c2ccc(F)cc2)CC1)c1ccc2nc(N[C@H]3CC[C@H](O)CC3)c3nccn3c2c1`, for which the inhibition in experiment [4] was found to be 76%.

Take `c1ccc(CCNc2nc3ccccc3n3ccnc23)cc1`: the values for the inhibition in experiment [1], in experiment [2] and in experiment [3] were 59.9%, below 35% and below 35%, respectively.

`O=C(NC1(c2ccccc2)CC1)c1ccc2nc(N[C@H]3CC[C@H](O)CC3)c3nccn3c2c1` displayed an inhibition in experiment [4] above 86%.

For the molecule `O=C(N[C@H](CO)c1ccccc1)c1ccc2nc(N[C@H]3CC[C@H](O)CC3)c3nccn3c2c1`, the inhibition in experiment [4] was 75.6%.

For `c1ccc2c(c1)nc(NC1CCCCC1)c1nccn12`, the inhibition was 55.9% in experiment [1], 50.7% in experiment [2] and below 35% in experiment [3].

As to `CCC[C@@H](NC(=O)c1ccc2nc(N[C@H]3CC[C@H](O)CC3)c3nccn3c2c1)c1ccccc1`, the inhibition in experiment [4] amounted to 36.9%.

In the case of `O[C@H]1CC[C@H](Nc2nc3ccccc3n3ccnc23)CC1`, the inhibition was 90.8% in experiment [1], 90.7% in experiment [2] and 65% in experiment [3].
